Patent publication US20190031613A1, “COMPOUNDS AND METHODS FOR THEIR USE IN THE TREATMENT OF MALARIA” (University of South Florida, priority 2016, published 2019)
Values after ≈ are worked out from the molar mass of the structure shown. Like-named read-outs stand apart in the source and are kept apart here. One block for each compound: values may come before it.

Experiments:
P. berghei-GFP parasites = test: in vivo efficacy, modified Thompson test; set-up: species or system mice; conditions: 0.5% aqueous HEC
Protocol: Prodrug 6d was orally tested for in vivo efficacy at four doses (0.3 mg/kg, 1.0 mg/kg, 3.0 mg/kg, and 10 mg/kg) in 0.5% aqueous HEC solution.

[1] = in vivo pharmacokinetics in mice (plasma, LC/MS-MS)
Protocol: Plasma exposure of prodrug 6e and parent compound 1b was determined following a single oral administration at 10 mg/kg and 3 mg/kg doses in 0.5% aqueous HEC (FIG. 5b).
Compounds 1b and its prodrug 6e were administered as a single dose (10 mg/kg) in 0.5% HEC using freshly prepared solution. Parent compound 1d and its prodrugs 6c and 6d were administered as a single dose of 50 mg/kg using the same vehicle. The blood was collected in prepared 5 ml syringe containing heparin via cardiac puncture and put into 15 mL conical tube on ice. Five mice were used per one time point at 0.5 h, 1 h, 2 h, 4 h, 8 h and 24 h […] plus 2 mice as a control (not-treated). The blood was then centrifuged for 5 min at 4000 rpm and plasma supernatant collected while avoiding the whole blood pellet at the bottom of the tube. The plasma was stored at −80° C. until the day of LC/MS-MS analysis.
Compound concentrations were quantitated in plasma samples by LC/MS-MS using an Agilent triple quadrupole instrument. Chromatographic separation was conducted using an Agilent HPLC with Phenomenex Kinetex C18 column (2.6 μm particle size, 50-4.6 mm i.d.) equipped with a Phenomenex Security Guard column. The mobile phase (1.25 mL/min) consisted of 0.05% formic acid in water and 0.05% formic acid in acetonitrile mixed using a linear gradient over 7 minutes. […] Plasma samples and calibration standards were prepared by protein precipitation with acetonitrile (3 parts acetonitrile to 1 part plasma), followed by centrifugation and analysis of the supernatant. Sample concentrations were determined by comparison to calibration standards prepared in blank plasma and assayed using the same conditions. The analytical lower limit of quantitation in plasma was typically 0.75-1.00 nM and accuracy, precision and recovery were within acceptable limits.
The plasma was first warmed up on ice for about 1 hour. Then 50 μL of plasma sample was precipitated with 150 μL of cold acetonitrile with internal standard (133 nM) P4Q-95^20) following by centrifugation at 4,000 rpm for 5 min at 4° C. and transfer˜150 μL of the supernatant to LCMS vial. The samples were analyzed using Agilent triple quadruple instrument in triplicates (5 mice×3 injections for each time point). The chemical structure of P4Q-95^20 is shown below:
The calibration curve for 1d was linear in 1 to 500 nM range so samples were diluted if needed to fit this linearity and then concentration recalculated accordingly. Calibration curve was run each time following the actual PK measurements and used for that particular compound.

[2] = aqueous solubility at pH 7.4; conditions: pH 7.4, aqueous buffer
[3] = system: multidrug resistant malarial strain W2 (pyrimethamine and chloroquine resistant); test: in vitro antimalarial activity against strain W2; type: cell-based; conditions: strains W2 and TM90-C2B, strain not specified
Source text: FIG. 2a depicts the synthesis of 4(1H)-quinolones 1 via Conrad-Limpach reaction^24 and conversion to first set of prodrugs (2, 3 and 4) via O-acylation.
FIG. 4a depicts the synthesis of 4(1H)-quinolones 1 into amino AOCOM ether prodrugs 6 via O-alkylation and subsequent deprotection.

[4] = single PO dose 10 mg/kg on day 3 PI
[5] = oral dose 3.0 mg/kg, 0.5% aqueous HEC
[6] = oral dose 100 mg/kg, 0.5% aqueous HEC
[7] = 10 mg/kg PO, three daily doses days 3-5 PI
[8] = 10 mg/kg PO, three daily doses days 3-5 PI, untreated 13
[9] = 50 mg/kg PO, three daily doses days 3-5 PI
[10] = aqueous medium at pH 7.4 (buffer not named)

Compound: COc1cc2[nH]c(C)c(-c3ccc(Oc4ccc(OC(F)(F)F)cc4)cc3F)c(=O)c2cc1Cl [1b, 6-chloro-3-(2-fluoro-4-(4-(tfifluoromethoxy)phenoxy)phenyl)-7-methoxy-2-methyl-4(1H)-quinolone, reference compound]
Day of death (avg) (P. berghei-GFP parasites; [4]): 13
Suppression [%] day 6 PI (P. berghei-GFP parasites; [4]): <1%
in vivo activity (P. berghei-GFP parasites; single dose of 10 mg/kg PO): completely inactive
AUC0→24 [1, 5]: 228 µmol·min/L
CL [1, 5]: 26.6 mL·kg/min
Vd [1, 5]: 19.6 L/kg
t1/2 apparent [1, 5]: 8.5 h
tmax [1, 5]: 4 h
AUC0→24 [1, 6]: 580 µmol·min/L
CL [1, 6]: 34.9 mL·kg/min
Vd [1, 6]: 44 L/kg
t1/2 apparent [1, 6]: 14.5 h
tmax [1, 6]: 8 h
Cmax ([1]; read-out: Cmax [μmol/L], oral dose 3.0 mg/kg, 0.5% aqueous HEC, parent in plasma): 0.31 µmol/L
Cmax ([1]; read-out: Cmax [μmol/L], oral dose 100 mg/kg, 0.5% aqueous HEC): 0.46 µmol/L
Cmax ([1]; single oral 3 mg/kg, 0.5% aqueous HEC): 0.31 µmol/L

Compound: COc1cc2[nH]c(C)c(-c3ccccc3C)c(=O)c2cc1Cl [1c, 6-chloro-7-methoxy-2-methyl-3-(o-tolyl)-4(1H)-quinolone, reference compound]
Suppression [%] day 6 PI (P. berghei-GFP parasites; [7]): 29%
Day of death (avg) (P. berghei-GFP parasites; [8]): 13
Day of death (avg) (P. berghei-GFP parasites; [9]): 13
Suppression [%] day 6 PI (P. berghei-GFP parasites; [9]): 28%
solubility [2, 10]: 8.7 µM (≈ 2.73 µg/mL)

Compound: COc1cc2[nH]c(C)c(-c3ccc(C(F)(F)F)cc3)c(=O)c2cc1Cl [1d, 6-chloro-7-methoxy-2-methyl-3-(4-(trifluoromethyl)phenyl)-4(1H)-quinolone, reference compound]
Suppression [%] day 6 PI (P. berghei-GFP parasites; [7]): 11%
Day of death (avg) (P. berghei-GFP parasites; [8]): 14
Day of death (avg) (P. berghei-GFP parasites; [9]): 13
Suppression [%] day 6 PI (P. berghei-GFP parasites; [9]): 10%
AUC0→24 ([1]; mouse, in vivo, po, 50 mg/kg): 222 µmol·min/L
CL ([1]; mouse, in vivo, po, 50 mg/kg): 609.7 mL·kg/min
Cmax ([1]; mouse, in vivo, po, 50 mg/kg): 0.36 µmol/L
Vd ([1]; mouse, in vivo, po, 50 mg/kg): 377.7 L/kg
maximum plasma concentration of 1d ([1]; mouse, in vivo, po, 50 mg/kg): 365 nM
t1/2 apparent ([1]; mouse, in vivo, po, 50 mg/kg): 7.15 h
time of maximum plasma concentration ([1]; mouse, in vivo, po, 50 mg/kg): 2 h
tmax ([1]; mouse, in vivo, po, 50 mg/kg): 2 h

Compound: CCN(CC)C(=O)Oc1c(-c2ccccc2C)c(C)nc2cc(OC)c(Cl)cc12 [2a]
EC50 values fold higher than reference 4(1H)-quinolone 1c [3]: 300 fold
in vitro antimalarial activity / EC50 values relative to 1c [3]: lacked in antimalarial activity
solubility [2]: < 1 µM

EC50 values fold higher than reference 4(1H)-quinolone 1c [3]: 300 fold
in vitro antimalarial activity / EC50 values relative to 1c [3]: lacked in antimalarial activity
solubility [2, 10]: 2.9 µM (≈ 1.19 µg/mL)
Compound: COc1cc2nc(C)c(-c3ccccc3C)c(OC(=O)N3CCCC3)c2cc1Cl [2b, 6-Chloro-7-methoxy-2-methyl-3-(o-tolyl)-4-((pyrrolidine-1-carbonyl)oxy)quinoline]

Compound: CNCCOC(=O)OCOc1c(-c2ccccc2C)c(C)nc2cc(OC)c(Cl)cc12.Cl [6a, 6-Chloro-7-methoxy-2-methyl-3-(o-tolyl)-4-(((2-(methylammonio)ethoxycarbonyl)oxy)methoxy)quinoline, chloride salt]
Suppression [%] day 6 PI (P. berghei-GFP parasites; [7]): 71%
Day of death (avg) (P. berghei-GFP parasites; [8]): 16
Day of death (avg) (P. berghei-GFP parasites; [9]): 13
Suppression [%] day 6 PI (P. berghei-GFP parasites; [9]): 46%
